Measured values reported in patent publication US11814327B2, “Fertilizers containing animal nutrient core packet” (Pursell Agri-Tech, LLC, priority 2010, dated 2023).

Test system: spinach variety (Bloomsdale Long-Standing)
Test: Zinc uptake in spinach plants from application of fertilizer containing animal nutrient core packet (8-kg pot test)
Type: in vivo
Conditions: Soil applied Zn nutrient core product
Description: In this example tests were performed to quantify the incorporation of zinc in a common spinach variety (Bloomsdale Long-Standing) employing compositions of the present invention. The tests quantified the increase in leaf zinc content due to application of compositions of the present invention containing zinc. The impact of the present compositions on spinach biomass increase was not the primary objective. In addition to applications of the present compositions to soil, for comparative purposes, foliar application of zinc solutions were applied to spinach leaves. Direct foliar applications provide an indication of potentially maximum amounts of zinc uptake into the leaves. 1. Soil • 8 kg Greenville loam (fine, kaolinitic, thermic Rhodie Kandiudults), pH=6.2, organic matter=1.4%, CEC=5.2 cmol kg^−1. The soil has been depleted of nutrients by previous cropping of tomatoes and cabbage. 2. Experimental Units • The spinach was grown in 8-kg pots. Each pot was transplanted with two spinach seedlings on Mar. 5, 2010 3. Blanket Fertilizer Rates—Basal • All fertilizer materials were laboratory grade reagents to avoid contamination and antagonistic interaction with Zn, Fe and/or I. • Nitrogen: 250 mg N kg^−1 or 2 g N por^−1. […] Crop Data Analysis • The fresh and dried weight of spinach leaves was determined and analyzed for N, P, K, Zn, Fe and I. [table]

O=C([O-])CN(CCN(CC(=O)[O-])CC(=O)[O-])CC(=O)[O-].[Na+].[Na+].[Zn+2] [Zinc EDTA]
effectiveness as Zn source in the nutrient core in increasing Zn tissue content in spinach: more effective than ZnSO4
